Data on four molecules can be found in article PMC12621189, “Optimization of Selective and CNS Penetrant Alkyne-Based TREK Inhibitors: The Discovery and Characterization of ONO-9517601 (VU6022856) and ONO-7927846 (VU6024391)” (Journal of Medicinal Chemistry, 2025).

Each structure is given as a SMILES string.

The nature of series [1]: Rat in vivo PK (plasma clearance) in SAR tables. The conditions noted are these: read-out: Rat CLp.
The nature of series [2]: Rat brain to plasma ratio (Kp, Kp,uu). Type of series: in vivo. The conditions noted are these: male, Sprague Dawley, intravenous, 0.2 mg/kg; for Kp at 15 min: brain and plasma, rat brain:plasma; for Kp uu at 15 min: brain and plasma (unbound), rat unbound brain:unbound plasma. The protocol: Determination of brain to plasma ratio:
All animal study procedures were approved by the Institutional Animal Care and Use Committee and were conducted in accordance with the National Institutes of Health regulations of animal care covered in Principles of Laboratory Animal Care (National Institutes of Health). All rats were fasted overnight prior to testing.
For determination of the brain over plasma ratio (Kp), compounds were formulated in 8% ethanol, 32% PEG400 and 60% DMSO (v/v/v) and administered as a single 0.2 mg/kg IV dose (1 mL/kg) to male, Sprague Dawley rats (n = 1) via injection into a surgically-implanted jugular vein catheter. At 15 min post dosing, blood sample was collected into chilled, K2EDTA anticoagulant-fortified tube and immediately placed on wet ice. The blood sample was then centrifuged (1700 rcf, 5 minutes, 4 °C) to obtain plasma sample. At the same post-administration time point, whole brain sample was obtained by rapid dissection, rinsed with PBS, and immediately frozen in individual tissue collection box (dry ice). All brain and plasma samples were stored at -80 °C until […]
Sample Analysis: Concentrations in plasma and brain homogenates were quantified by liquid chromatography tandem mass spectrometry (LC-MS/MS). Whole brains were homogenized in 3 mL of 70:30 IPA:water in a mini bead beater for 3 min, and centrifuged at 3,500 g for 5 min. 5 uL of the supernatant was diluted in 15 uL of blank plasma for quantification of the analytes. Plasma samples were centrifuged at 3,500 g for 5 min. A standard curve was generated by diluting the analytes DMSO stocks with blank plasma to obtain a final concentration of 10,000 ng/ml followed by a serial dilution down to 0.5 ng/ml. Quality controls were generated by a serial dilution of the 5,000 ng/ml standard curve solution in blank plasma to obtain 3 concentrations of 500, 50, and 5 ng/ml. 20 uL of brain diluted in plasma, plasma, blank plasma, standard curve and QC samples were loaded in a V-bottom 96-well plate. 120 uL of acetonitrile containing 0.05 uM carbamazepine (internal standard) was added to each well and the plate was centrifuged at 3,500 g for 5 min. 60 uL of the supernatant of each well (protein free) was transferred to a new 96-well plate containing 60 uL of water. The plates were sealed for analysis by LC-MS/MS.
Plasma and brain tissue samples originating from in vivo studies were analyzed by electrospray ionization using an AB Sciex Q-TRAP 5500 (Foster City, CA) that was coupled to a Shimadzu LC-20AD pump (Columbia, MD) and a Leap Technologies CTC PAL auto-sampler (Carrboro, NC). Analytes were separated by gradient elution using a C18 column (3 x 50 mm, 3 mm; Fortis Technologies Ltd, Cheshire, UK) that was thermostated at 40 °C. HPLC mobile phase A was 0.1% formic acid in water (pH unadjusted); mobile phase B was 0.1% formic acid in acetonitrile (pH […]
min, with an isocratic hold for 0.5 min, before transitioning to 10% B over 0.05 min. The column was re-equilibrated (1 min) before the next sample injection. The total run time was 2.55 min, and the HPLC flow rate was 0.5 ml/min. The source temperature was set at 500 °C, and mass spectral analyses were performed using a Turbo-Ion spray source in positive ionization mode (5.0-kV spray voltage) and using multiple-reaction monitoring of transitions specific for the analytes. All data were analyzed using AB Sciex Analyst 1.5.1 software.
Brain plasma concentration ratio (Kp) was calculated by dividing brain concentration by plasma concentration for each animal. Unbound brain to unbound plasma concentration ratio (Kp,uu) is calculated using the following formula: Kp,uu = (Brain ng/g x brain fu)/(plasma ng/ml x plasma fu).
In-vitro determination of blood-brain barrier penetration potential
Blood-brain barrier penetration was determined using MDR1-MDCK cell monolayers by Absorption Systems, following their protocol. In short, compounds were incubated at […] final concentration on one side of the cell monolayer for 2 hours. […]

Series [3] in a line: Plasma protein binding, rat. Type of series: in vitro ADME. The settings on record: bound; for fraction unbound at 6 h, 5 µM: rat, plasma, pH 7.4, rat plasma, read-out: PPB rat (converted). The protocol: Plasma protein binding and Brain homogenate binding: Determination of fraction unbound (f u) in plasma was conducted in vitro via equilibrium dialysis using HTDialysis (HTD) membrane plates. The top half of the plate was filled with 100 uL of Dubelco’s Phosphate Buffered Saline, pH 7.4 (DPBS). Compounds were diluted into plasma from each species (5 µM final concentration), which was aliquoted in triplicate to the ‘bottom half’ of the prepared HTD plate wells. The HTD plate was sealed and incubated for 6 hours at 37 °C. Following incubation, each well (both top and bottom halves) were transferred (20 µL) to the corresponding wells of a 96-shallow-well (V-bottom) plate. The daughter plates were then matrix-matched (DPBS side wells received equal volume of plasma, and plasma side wells received equal volume of DPBS), and extraction solution (120 µL; acetonitrile containing 50 nM carbamazepine as IS) was added to all wells of both daughter plates to precipitate protein and extract test article. The plates were then sealed and centrifuged (3500 rcf) for 10 minutes at ambient temperature. Supernatant (60 µL) from each well of the daughter plates was then transferred to the corresponding wells of new daughter plates (96-shallow-well, V bottom) containing water (Milli-Q, 60 µL/well), and the plates were sealed in preparation for LC-MS/MS analysis (see LC-MS/MS analysis method below).
The unbound fraction (f u) was calculated following the equation below, and mean values for each species were calculated from 3 replicates. […]
Fraction unbound for both plasma and brain samples was determined using Equation 4.
Equation 4 Determination of fraction unbound in plasma. […]

Take `Cc1cc(C#Cc2ccccc2)cnc1NC(=O)c1cc(OC[C@@H]2COCCO2)ccc1Cl` [Compound 7, (S)-5-((1,4-Dioxan-2-yl)methoxy)-2-chloro-N-(3-methyl-5-(phenylethynyl)pyridin-2-yl)benzamide]: in series [1], the clearance came out at 9.43 mL/min/kg. Besides, the Kp at 15 min in series [2] turned out to be 0.86.
In the case of `CC(=O)N1CCC(n2ncc(Cl)c2C(=O)Nc2ncc(C#Cc3ccccc3)cc2C)CC1` [Compound 10, 1-(1-Acetylpiperidin-4-yl)-4-chloro-N-(3-methyl-5-(phenylethynyl)pyridin-2-yl)-1H-pyrazole-5-carboxamide], the fraction unbound at 6 h, 5 µM in series [3] is 0.013. In series [1], the clearance was 27.7 mL/min/kg. Moreover, in series [2], the Kp uu at 15 min is 1 and the Kp at 15 min amounted to 2.7.
For the molecule `CC(=O)N1CC[C@@H](n2ncc(Cl)c2C(=O)Nc2ncc(C#Cc3ccc(F)cc3)cc2C)[C@H](F)C1` [Compound 11, 1-((3R,4R)-1-Acetyl-3-fluoropiperidin-4-yl)-4-chloro-N-(5-((4-fluorophenyl)ethynyl)-3-methylpyridin-2-yl)-1H-pyrazole-5-carboxamide], the fraction unbound at 6 h, 5 µM in series [3] was 0.083. Moreover, in series [2], the Kp uu at 15 min came out at 0.1 and the Kp at 15 min was determined as 1.5.
In the case of `Cc1cc(C#Cc2ccccc2)cnc1NC(=O)c1c(Cl)cnn1[C@H]1CCOC1` [Compound 15a, (S)-4-Chloro-N-(3-methyl-5-(phenylethynyl)pyridin-2-yl)-1-(tetrahydrofuran-3-yl)-1H-pyrazole-5-carboxamide], the PPB rat in series [3] (rat plasma) came out at 98.1%. For the same molecule, the fraction unbound at 6 h, 5 µM in series [3] is about 0.02. The clearance in series [1] is 8.9 mL/min/kg. Also, the Kp at 15 min in series [2] turned out to be 2.8.
